The nature of test [1]: DRUGMATRIX: Calcium Channel Type L, Dihydropyridine radioligand binding (ligand: [3H] Nitrendipine). The format is cell membranes, Rattus norvegicus, Wistar, Cerebral cortex, Membrane. The settings on record: Not Active = under 50% inhibition at 10 µM.
In test [2] the target is T1, C-X-C chemokine receptor type 2 (Homo sapiens, UniProt P25025). Also: in other assays of this panel Not Active means under 50% inhibition at 10 µM.
T1 sequence (P25025 whole entry): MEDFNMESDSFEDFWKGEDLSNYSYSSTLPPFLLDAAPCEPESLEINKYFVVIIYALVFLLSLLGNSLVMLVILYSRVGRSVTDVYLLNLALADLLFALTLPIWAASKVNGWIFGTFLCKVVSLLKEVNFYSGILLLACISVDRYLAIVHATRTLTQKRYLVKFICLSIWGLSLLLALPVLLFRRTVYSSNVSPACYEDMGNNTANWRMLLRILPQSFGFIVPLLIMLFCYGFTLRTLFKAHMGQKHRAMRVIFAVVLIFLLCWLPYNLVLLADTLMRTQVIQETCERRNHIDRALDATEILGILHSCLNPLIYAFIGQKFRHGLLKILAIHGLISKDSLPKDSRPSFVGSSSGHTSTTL
In kind it is cell membranes, Membrane. Conditions: cho-k1.

A short description of test [3]: DRUGMATRIX: Glutamate, NMDA, Phencyclidine radioligand binding (ligand: [3H] TCP). The format is cell membranes, Rattus norvegicus, Wistar, Cerebral cortex, Membrane. Conditions: Not Active = under 50% inhibition at 10 µM.
Test [4] concerns the target Delta-type opioid receptor (Homo sapiens, UniProt P41143). The format is cell membranes, HEK293, Membrane. Conditions: hek293. Also: in other assays of this panel Not Active means under 50% inhibition at 10 µM.
In test [5] the target is T2, Angiotensin-converting enzyme (Oryctolagus cuniculus, UniProt P12822).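 Also: enzymatic inhibition of angiotensin-converting enzyme measured with FAPGG as the substrate; in other assays of this panel Not Active means under 50% inhibition at 10 µM.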
T2 sequence (P12822 whole entry): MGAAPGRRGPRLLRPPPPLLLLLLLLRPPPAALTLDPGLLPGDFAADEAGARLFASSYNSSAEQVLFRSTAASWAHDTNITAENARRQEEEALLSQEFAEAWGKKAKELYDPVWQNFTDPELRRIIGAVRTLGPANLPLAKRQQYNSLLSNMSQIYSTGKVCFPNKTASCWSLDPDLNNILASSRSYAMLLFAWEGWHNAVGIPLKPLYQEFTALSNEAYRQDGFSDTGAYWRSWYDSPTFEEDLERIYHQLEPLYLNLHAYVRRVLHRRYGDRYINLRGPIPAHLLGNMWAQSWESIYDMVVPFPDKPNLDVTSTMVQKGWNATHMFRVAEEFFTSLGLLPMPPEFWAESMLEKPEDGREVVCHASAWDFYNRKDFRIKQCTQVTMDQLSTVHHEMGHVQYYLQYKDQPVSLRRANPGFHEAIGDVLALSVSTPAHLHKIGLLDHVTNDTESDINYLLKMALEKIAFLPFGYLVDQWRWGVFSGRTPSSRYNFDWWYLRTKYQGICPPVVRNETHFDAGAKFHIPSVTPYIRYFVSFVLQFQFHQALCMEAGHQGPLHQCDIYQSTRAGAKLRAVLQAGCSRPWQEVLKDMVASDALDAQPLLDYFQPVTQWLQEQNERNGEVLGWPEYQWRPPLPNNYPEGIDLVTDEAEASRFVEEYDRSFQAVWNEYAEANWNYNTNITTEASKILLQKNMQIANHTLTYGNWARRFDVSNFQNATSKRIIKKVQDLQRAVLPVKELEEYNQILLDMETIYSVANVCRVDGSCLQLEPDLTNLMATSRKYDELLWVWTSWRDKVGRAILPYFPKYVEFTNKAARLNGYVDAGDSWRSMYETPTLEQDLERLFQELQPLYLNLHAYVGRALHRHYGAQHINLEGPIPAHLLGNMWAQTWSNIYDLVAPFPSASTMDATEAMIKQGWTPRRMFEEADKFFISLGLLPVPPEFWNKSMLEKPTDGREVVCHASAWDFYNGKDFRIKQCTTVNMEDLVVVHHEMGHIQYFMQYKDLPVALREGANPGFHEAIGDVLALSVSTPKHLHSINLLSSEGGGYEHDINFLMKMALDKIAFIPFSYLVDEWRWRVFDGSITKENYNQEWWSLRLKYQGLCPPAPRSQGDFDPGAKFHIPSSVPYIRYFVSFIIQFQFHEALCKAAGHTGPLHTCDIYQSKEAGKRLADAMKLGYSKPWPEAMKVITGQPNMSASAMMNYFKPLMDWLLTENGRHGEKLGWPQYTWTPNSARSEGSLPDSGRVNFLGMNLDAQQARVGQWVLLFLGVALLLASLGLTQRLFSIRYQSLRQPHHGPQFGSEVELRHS
In kind it is tissue-based, Lung.

Test [6] deals with Tyrosine-protein kinase Fyn (Homo sapiens, UniProt P06241). In words: biochemical. The format is cell-based, Insect cells.
For test [7], the target named is Tyrosine-protein kinase Lck (Homo sapiens, UniProt P06239). In words: DRUGMATRIX: Protein Tyrosine Kinase, LCK enzyme inhibition (substrate: Poly(Glu:Tyr)). The format is cell-based, Insect cells. The settings on record: Not Active = under 50% inhibition at 10 µM.

Molecules are shown by their SMILES.

Tyrosine-protein kinase Fyn, sequence (P06241 whole entry): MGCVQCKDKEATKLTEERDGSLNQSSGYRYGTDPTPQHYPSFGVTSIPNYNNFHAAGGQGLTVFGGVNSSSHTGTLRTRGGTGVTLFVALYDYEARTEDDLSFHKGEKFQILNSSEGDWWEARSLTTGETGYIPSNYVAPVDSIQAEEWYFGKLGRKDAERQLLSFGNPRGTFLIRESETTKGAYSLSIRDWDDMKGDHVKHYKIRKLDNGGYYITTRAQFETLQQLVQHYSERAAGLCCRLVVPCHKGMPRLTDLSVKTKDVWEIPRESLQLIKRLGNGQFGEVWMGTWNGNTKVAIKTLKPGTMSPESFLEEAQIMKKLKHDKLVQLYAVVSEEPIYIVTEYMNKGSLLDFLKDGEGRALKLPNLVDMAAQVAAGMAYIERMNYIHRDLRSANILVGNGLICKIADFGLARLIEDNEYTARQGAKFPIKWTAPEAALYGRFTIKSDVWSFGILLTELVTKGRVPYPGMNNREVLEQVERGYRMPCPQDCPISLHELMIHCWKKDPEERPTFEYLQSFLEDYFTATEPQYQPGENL
Delta-type opioid receptor, sequence (P41143 whole entry): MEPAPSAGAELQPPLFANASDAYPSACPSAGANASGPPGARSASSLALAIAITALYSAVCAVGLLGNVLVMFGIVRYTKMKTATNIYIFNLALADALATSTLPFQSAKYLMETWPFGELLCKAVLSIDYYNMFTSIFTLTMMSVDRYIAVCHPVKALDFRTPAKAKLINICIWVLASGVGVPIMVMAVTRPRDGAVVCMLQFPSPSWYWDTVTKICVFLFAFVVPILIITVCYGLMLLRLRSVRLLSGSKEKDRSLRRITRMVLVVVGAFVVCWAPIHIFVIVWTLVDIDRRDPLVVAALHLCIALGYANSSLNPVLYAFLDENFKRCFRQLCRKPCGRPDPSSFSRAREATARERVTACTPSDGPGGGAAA
Tyrosine-protein kinase Lck, sequence (P06239 whole entry): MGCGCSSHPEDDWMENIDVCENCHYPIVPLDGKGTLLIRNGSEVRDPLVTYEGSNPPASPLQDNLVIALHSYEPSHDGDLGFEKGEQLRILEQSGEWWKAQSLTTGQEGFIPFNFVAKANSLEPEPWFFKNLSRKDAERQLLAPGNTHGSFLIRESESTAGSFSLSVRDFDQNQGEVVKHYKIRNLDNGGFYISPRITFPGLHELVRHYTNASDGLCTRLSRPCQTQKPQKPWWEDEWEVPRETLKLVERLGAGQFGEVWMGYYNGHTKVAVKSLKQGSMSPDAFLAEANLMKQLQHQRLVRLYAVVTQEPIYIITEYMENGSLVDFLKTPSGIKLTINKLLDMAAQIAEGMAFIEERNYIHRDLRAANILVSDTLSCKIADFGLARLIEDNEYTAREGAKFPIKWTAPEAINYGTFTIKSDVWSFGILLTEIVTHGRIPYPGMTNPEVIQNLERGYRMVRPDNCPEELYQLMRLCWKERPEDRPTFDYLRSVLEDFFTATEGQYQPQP

The IC50 is the midpoint of a concentration-inhibition curve. For orientation: Ki means the dissociation constant of the complex between target and ligand, obtained from inhibition or displacement. Regarding `COc1nc(C)nc(Cl)c1NC1=NCCN1` [MOXONIDINE], the IC50 entry in test [1], in test [2], in test [3], in test [4], in test [5] and in test [6] (insect cells) was “Not Active” throughout. In test [7] (insect cells), the IC50 result was “Not Active”. For the same molecule, the Ki result in test [1] and in test [3] was “Not Active” each time.

As for `OCCN(CCO)c1nc(N2CCCCC2)c2nc(N(CCO)CCO)nc(N3CCCCC3)c2n1` [DIPYRIDAMOLE], the IC50 entry in test [1], in test [2], in test [3], in test [4], in test [5] and in test [6] (insect cells) was “Not Active” in each case. In test [7] (insect cells), the 50% inhibitory concentration (IC50) result is listed as “Not Active”. For the same molecule, the Ki entry in test [1] and in test [3] was “Not Active” throughout.

On to `O=NN(CCCl)C(=O)NC1CCCCC1` [LOMUSTINE], for which the IC50 result in test [1], in test [2], in test [3], in test [4], in test [5] and in test [6] (insect cells) was “Not Active” throughout. The IC50 result in test [7] (insect cells) is on record as “Not Active”. Further, the Ki entry in test [1] and in test [3] was “Not Active” in each case.

As for `O=c1ncn2nc(Sc3ccc(F)cc3F)ccc2c1-c1c(Cl)cccc1Cl` [NEFLAMAPIMOD], the IC50 in test [1] (read-out: IC50) was 38.9 µM; in test [2] it was “Not Active”; in test [3], “Not Active”; in test [4], “Not Active”; in test [5], “Not Active”; in test [6] (insect cells) it was “Not Active”. Also, the IC50 entry in test [7] (insect cells) is given as “Not Active”. Besides, the Ki was 25 µM in test [1] (read-out: Ki) and “Not Active” in test [3].

In the case of `CC[C@]1(O)C[C@H]2CN(CCc3c([nH]c4ccccc34)[C@@](C(=O)OC)(c3cc4c(cc3OC)N(C=O)[C@H]3[C@@](O)(C(=O)OC)[C@H](OC(C)=O)[C@]5(CC)C=CCN6CC[C@]43[C@@H]65)C2)C1` [VINCRISTINE], the IC50 result in test [1], in test [2], in test [3], in test [4], in test [5] and in test [6] (insect cells) was “Not Active” each time. Also, in test [7] (insect cells), the IC50 entry is on record as “Not Active”. Also, the Ki entry in test [1] and in test [3] was “Not Active” in each case.

With `CSc1ccc(/C=C2/C(C)=C(CC(=O)O)c3cc(F)ccc32)cc1` [SULINDAC SULFIDE], the IC50 entry in test [1], in test [2], in test [3], in test [4], in test [5] and in test [6] (insect cells) was “Not Active” each time. In test [7] (insect cells), the IC50 entry is listed as “Not Active”. The Ki entry in test [1] and in test [3] was “Not Active” throughout.

Take `CC(=O)[C@@]1(O)CC[C@H]2[C@@H]3C[C@H](C)C4=CC(=O)CC[C@]4(C)[C@H]3CC[C@@]21C`: the concentration for half-maximal inhibition (IC50) result in test [1], in test [2], in test [3], in test [4], in test [5] and in test [6] (insect cells) was “Not Active” each time. In addition, in test [7] (insect cells), the IC50 result is “Not Active”. Moreover, the Ki result in test [1] and in test [3] was “Not Active” in each case.

As for `Cc1noc(NS(=O)(=O)c2ccc(N)cc2)c1C` [SULFISOXAZOLE], the IC50 entry in test [1], in test [2], in test [3], in test [4], in test [5] and in test [6] (insect cells) was “Not Active” in each case. Further, the IC50 result in test [7] (insect cells) is “Not Active”. Further, the inhibitory constant (Ki) result in test [1] and in test [3] was “Not Active” throughout.

Take `N[C@@H](Cc1ccc(O)c(O)c1)C(=O)O` [LEVODOPA]: the IC50 entry is “Not Active” in test [1]; “Not Active” in test [2]; “Not Active” in test [3]; “Not Active” in test [4]; “Not Active” in test [5]; 2.15 µM in test [6] (read-out: IC50). In test [7] (read-out: IC50), the half-inhibitory concentration (IC50) turned out to be 3.73 µM. In addition, the Ki entry in test [1] and in test [3] was “Not Active” in each case.

`NS(=O)(=O)c1cc2c(cc1Cl)NC(C(Cl)Cl)NS2(=O)=O` (centres undefined) [TRICHLORMETHIAZIDE]: the IC50 entry in test [1], in test [2], in test [3], in test [4], in test [5] and in test [6] (insect cells) was “Not Active” in each case. Besides, in test [7] (insect cells), the IC50 result was “Not Active”. The Ki entry in test [1] and in test [3] was “Not Active” throughout.

As for `Nc1c2c(nc3ccccc13)CCCC2` [TACRINE], the IC50 entry in test [1], in test [2], in test [3], in test [4], in test [5] and in test [6] (insect cells) was “Not Active” each time. In test [7] (insect cells), the IC50 result was “Not Active”. The Ki entry in test [1] and in test [3] was “Not Active” each time.

Consider `NC[C@H]1CC[C@H](C(=O)O)CC1` [TRANEXAMIC ACID], for which the IC50 result in test [1], in test [2], in test [3], in test [4], in test [5] and in test [6] (insect cells) was “Not Active” throughout. The IC50 entry in test [7] (insect cells) was “Not Active”. In addition, the Ki result in test [1] and in test [3] was “Not Active” each time.

Regarding `CCOC(=O)N1CCC(=C2c3ccc(Cl)cc3CCc3cccnc32)CC1` [LORATADINE], the IC50 entry in test [1], in test [2], in test [3], in test [4], in test [5] and in test [6] (insect cells) was “Not Active” each time. Also, the IC50 result in test [7] (insect cells) is “Not Active”. Also, the Ki entry in test [1] and in test [3] was “Not Active” in each case.

In the case of `c1ccc([C@H]2CN3CCSC3=N2)cc1` [LEVAMISOLE], the IC50 result in test [1], in test [2], in test [3], in test [4], in test [5] and in test [6] (insect cells) was “Not Active” in each case. Further, the IC50 entry in test [7] (insect cells) is listed as “Not Active”. Moreover, the Ki entry in test [1] and in test [3] was “Not Active” each time.

Take `CC(C)N1CCN(c2ccc(OCC3COC(Cn4cncn4)(c4ccc(Cl)cc4Cl)O3)cc2)CC1` (centres undefined) [TERCONAZOLE]: the concentration for half-maximal inhibition (IC50) result in test [1] was “Not Active”; in test [2], “Not Active”; in test [3], “Not Active”; in test [4], “Not Active”; in test [5] it was “Not Active”; in test [6] (read-out: IC50), 10.9 µM. Moreover, in test [7] (insect cells), the IC50 entry is given as “Not Active”. Besides, the inhibition constant (Ki) entry in test [1] and in test [3] was “Not Active” throughout.

For `CC[C@@H](CO)NC(=O)[C@@H]1C=C2c3cccc4[nH]cc(c34)C[C@H]2N(C)C1` [METHYLERGONOVINE], the IC50 result in test [1], in test [2], in test [3], in test [4], in test [5] and in test [6] (insect cells) was “Not Active” each time. Also, the 50% inhibitory concentration (IC50) result in test [7] (insect cells) is “Not Active”. The Ki entry in test [1] and in test [3] was “Not Active” throughout.

For the origin of these results see ChEMBL document CHEMBL1909046, “DrugMatrix in vitro pharmacology data”.
